# Experimental data as given in ChEMBL document CHEMBL6103613 (J Med Chem, 2025).
# Calls of active or inactive are those of the source. No cut-off for these calls is given here.
# Experiments:
# Staphylococcus aureus [1] = assay: Induction of ROS production in Staphylococcus aureus assessed as increase in fluorescence intensity at 2 times MIC by DCFH-DA probe based assay; type: functional, organism-based
# Staphylococcus aureus [2] = assay: Antimicrobial activity against methicillin-resistant Staphylococcus aureus clinical isolate 4 assessed as inhibition of visible bacterial growth incubated for 18 hrs by CLSI based analysis; type: functional
# Staphylococcus aureus [3] = assay: Inhibition of biofilm formation in Staphylococcus aureus at 1 to 16 times MIC by crystal violet staining based analysis; type: functional
# Staphylococcus aureus [4] = assay: Antimicrobial activity against Staphylococcus aureus incubated for 0.5 hrs in presence of Ca2+; type: functional, organism-based
# Enterococcus faecalis = assay: Antimicrobial activity against Enterococcus faecalis ATCC 19433 assessed as inhibition of visible bacterial growth incubated for 18 hrs by CLSI based analysis; type: functional
# Cell membrane = assay: Disruption of cell membrane integrity in Staphylococcus aureus at 4 times of MIC incubated for 1 mins by Propidium iodide staining based analysis; type: subcellular
# Staphylococcus aureus [5] = assay: Upregulation of TarF expression in Staphylococcus aureus at 12.5 microg/ml incubated for 3 hrs by RNA sequencing analysis; type: functional; details: dose 12.5 µg/ml
# Candida albicans = assay: Antifungal activity against Candida albicans assessed as reduction in fungal growth incubated for 18 hrs by CLSI based analysis; type: functional
# Staphylococcus aureus [6] = assay: Antibacterial activity against methicillin-resistant Staphylococcus aureus infected in kunming mouse pneumonia model assessed as decrease in IL-10 expression in lung at 5 mg/kg, ip measured upto 8 days; type: functional, organism-based; details: time <= 8.0 day
# [7] = Toxicity in mouse assessed as survival rate at 50 mg/kg, ip measured for 7 days; type: organism-based; details: in vivo, time 7 day
# Staphylococcus aureus [8] = assay: Upregulation of CwrA expression in Staphylococcus aureus at 12.5 microg/ml incubated for 3 hrs by RNA sequencing analysis; type: functional; details: dose 12.5 µg/ml
# [9] = Toxicity in mouse assessed as spleen damage at 50 mg/kg, ip measured for 7 days by H and E staining based analysis; type: organism-based; details: in vivo, 168 h, time 7 day
# [10] = Toxicity in mouse assessed as liver damage at 50 mg/kg, ip measured for 7 days by H and E staining based analysis; type: organism-based; details: in vivo, 168 h, time 7 day
# [11] = Hemolytic activity against mouse Red blood cells at 100 microg/ml incubated for 1 hr relative to control; type: toxicity, cell-based, Erythrocyte; details: at 100 µg/mL, read-out: Activity
# Staphylococcus aureus [12] = assay: Antibiofilm activity in Staphylococcus aureus assessed as biofilm eradication at 4 times MIC relative to control; type: functional
# [13] = Toxicity in mouse assessed as change in body weight gain at 50 mg/kg, ip measured for 7 days; type: organism-based; details: in vivo, 168 h, time 7 day
# Staphylococcus aureus [14] = assay: Upregulation of dltD expression in Staphylococcus aureus at 12.5 microg/ml incubated for 3 hrs by RNA sequencing analysis; type: functional; details: dose 12.5 µg/ml
# [15] = Therapeutic index, ratio of HC5 for hemolytic activity in mouse Red blood cell to MIC for antimicrobial activity against Staphylococcus aureus ATCC 25923 assessed as inhibition of visible bacterial growth; type: toxicity, cell-based, RBC; details: red blood cells, read-out: TI
# Staphylococcus aureus [16] = assay: Antimicrobial activity against Staphylococcus aureus incubated for 0.5 hrs in presence of Fe3+; type: functional, organism-based
# Staphylococcus aureus [17] = assay: Antimicrobial activity against Staphylococcus aureus assessed as reduction in bacterial growth at 2 times MIC incubated for 2 hrs by time-killing assay; type: functional; parameters: scale not given: the % may be the effect or the level left
# Staphylococcus aureus [18] = assay: Upregulation of LiaF expression in Staphylococcus aureus at 12.5 microg/ml incubated for 3 hrs by RNA sequencing analysis; type: functional; details: dose 12.5 µg/ml
# Escherichia coli = assay: Antimicrobial activity against Escherichia coli assessed as inhibition of visible bacterial growth incubated for 18 hrs by CLSI based analysis; type: functional
# Staphylococcus aureus [19] = assay: Antimicrobial activity against Staphylococcus aureus at 100 degreeC incubated for 0.5 hrs; type: functional, organism-based
# [20] = Toxicity in mouse assessed as change in water intake at 50 mg/kg, ip measured for 7 days; type: organism-based; details: in vivo, 168 h, time 7 day
# [21] = Toxicity in kunming mouse assessed as effect on lung morphology at 5 mg/kg, ip; type: organism-based; details: in vivo
# Staphylococcus aureus [22] = assay: Induction of ROS production in Staphylococcus aureus assessed as increase in fluorescence intensity at 4 times MIC by DCFH-DA probe based assay; type: functional, organism-based
# Staphylococcus aureus [23] = assay: Antimicrobial activity against Staphylococcus aureus ATCC 25923 assessed as inhibition of visible bacterial growth incubated for 18 hrs by CLSI based analysis; type: functional
# Staphylococcus aureus [24] = assay: Antibacterial activity against methicillin-resistant Staphylococcus aureus infected in kunming mouse peritonitis model assessed as reduction in bacterial colonies in spleen at 5 mg/kg, ip measured upto 8 days; type: functional, organism-based; details: time <= 8.0 day
# RAW264.7 = assay: Cytotoxicity against mouse RAW264.7 cells assessed as cell viability at 6.25 to 100 microg/ml incubated for 24 hrs by MTT assay; type: toxicity, cell-based; details: raw264.7, 24 h
# Staphylococcus aureus [25] = assay: Antimicrobial activity against methicillin-resistant Staphylococcus aureus clinical isolate 2 assessed as inhibition of visible bacterial growth incubated for 18 hrs by CLSI based analysis; type: functional
# Staphylococcus aureus [26] = assay: Antibacterial activity against methicillin-resistant Staphylococcus aureus infected in kunming mouse pneumonia model assessed as decrease in IL-6 expression in lung at 5 mg/kg, ip measured upto 8 days; type: functional, organism-based; details: time <= 8.0 day
# [27] = Hemolytic activity against mouse Red blood cell incubated for 1 hr; type: toxicity, cell-based; details: erythrocyte
# Staphylococcus aureus [28] = assay: Inhibition of biofilm formation in Staphylococcus aureus at 1 to 16 times MIC by hochest33342/PI staining based analysis; type: functional
# [29] = Toxicity in mouse assessed as heart damage at 50 mg/kg, ip measured for 7 days by H and E staining based analysis; type: organism-based; details: in vivo, 168 h, time 7 day
# Staphylococcus aureus [30] = assay: Antimicrobial activity against Staphylococcus aureus incubated for 0.5 hrs in presence of K+; type: functional, organism-based
# Staphylococcus aureus [31] = assay: Upregulation of SgtB expression in Staphylococcus aureus at 12.5 microg/ml incubated for 3 hrs by RNA sequencing analysis; type: functional; details: dose 12.5 µg/ml
# Staphylococcus aureus [32] = assay: Antibacterial activity against methicillin-resistant Staphylococcus aureus infected in kunming mouse peritonitis model assessed as reduction in bacterial colonies in blood at 5 mg/kg, ip measured upto 8 days; type: functional, organism-based; details: time <= 8.0 day
# Enterococcus faecium = assay: Antimicrobial activity against vancomycin-resistant Enterococcus faecium assessed as inhibition of visible bacterial growth incubated for 18 hrs by CLSI based analysis; type: functional
# Staphylococcus aureus [33] = assay: Antimicrobial activity against Staphylococcus aureus ATCC 25923 incubated for 1 hr in presence of PG; type: functional
# Staphylococcus aureus [34] = assay: Antibacterial activity against methicillin-resistant Staphylococcus aureus infected in kunming mouse pneumonia model assessed as decrease in TNF-alpha expression in lung at 5 mg/kg, ip measured upto 8 days; type: functional, organism-based; details: time <= 8.0 day
# Bacillus subtilis = assay: Antimicrobial activity against Bacillus subtilis ATCC 23875 assessed as inhibition of visible bacterial growth incubated for 18 hrs by CLSI based analysis; type: functional
# Peptidoglycan = assay: Binding affinity to Staphylococcus aureus peptidoglycan assessed as change in enthalpy by ITC analysis
# Staphylococcus aureus [35] = assay: Antimicrobial activity against methicillin-resistant Staphylococcus aureus ATCC 43300 assessed as inhibition of visible bacterial growth incubated for 18 hrs by CLSI based analysis; type: functional
# Staphylococcus aureus [36] = assay: Antimicrobial activity against Staphylococcus aureus incubated for 0.5 hrs in presence of NA+; type: functional, organism-based
# Staphylococcus aureus [37] = assay: Antimicrobial activity against Staphylococcus aureus ATCC 25923 incubated for 1 hr in presence of PE; type: functional
structure (smiles),measurement,setting,value
CC(C)[C@@H]1NC(=O)[C@@H](C(C)C)NC(=O)[C@H](C(C)C)NC(=O)[C@@H](CCCCN)NC(=O)[C@H](Cc2c(C(c3ccccc3)(c3ccccc3)c3ccccc3)[nH]c3ccccc23)NC(=O)[C@@H](C(C)C)NC(=O)[C@@H]2CSC1N2,Activity,Staphylococcus aureus [1],Active
same,MIC,Staphylococcus aureus [2],6.25 µg/mL
same,inhibition (INH),Staphylococcus aureus [3],~100%
same,Activity,Staphylococcus aureus [4],Active
same,MIC,Enterococcus faecalis,12.5 µg/mL
same,Activity,Cell membrane,26.2%
same,Activity,Staphylococcus aureus [5],Active
same,MIC,Candida albicans,3.13 µg/mL
same,Activity,Staphylococcus aureus [6],Active
same,survival at 168 h,[7],100%
same,Activity,Staphylococcus aureus [8],Active
same,Activity,[9],Non-toxic
same,Activity,[10],Non-toxic
same,"hemolysis at 1 h, 100 microg/ml",[11],< 5%
same,Activity,Staphylococcus aureus [12],40%
same,Activity,[13],Non-toxic
same,Activity,Staphylococcus aureus [14],Active
same,selectivity ratio,[15],> 16
same,Activity,Staphylococcus aureus [16],Active
same,Activity,Staphylococcus aureus [17],>99%
same,Activity,Staphylococcus aureus [18],Active
same,MIC,Escherichia coli,3.13 µg/mL
same,Activity,Staphylococcus aureus [19],Active
same,Activity,[20],Non-toxic
same,Activity,[21],Non-toxic
same,Activity,Staphylococcus aureus [22],Active
same,MIC,Staphylococcus aureus [23],6.25 µg/mL
same,Activity,Staphylococcus aureus [24],Active
same,Activity,RAW264.7,Non-toxic
same,MIC,Staphylococcus aureus [25],6.25 µg/mL
same,Activity,Staphylococcus aureus [26],Active
same,HC5,[27],> 100 µg/mL
same,inhibition (INH),Staphylococcus aureus [28],~100%
same,Activity,[29],Non-toxic
same,Activity,Staphylococcus aureus [30],Active
same,Activity,Staphylococcus aureus [31],Active
same,Activity,Staphylococcus aureus [32],Active
same,MIC,Enterococcus faecium,12.5 µg/mL
same,MIC,Staphylococcus aureus [33],> 50 µg/mL
same,Activity,Staphylococcus aureus [34],Active
same,MIC,Bacillus subtilis,6.25 µg/mL
same,deltaH,Peptidoglycan,0.925 kcal/mol
same,MIC,Staphylococcus aureus [35],6.25 µg/mL
same,Activity,Staphylococcus aureus [36],Active
same,MIC,Staphylococcus aureus [37],> 50 µg/mL
